Source: ChEMBL document CHEMBL1134011, “LY294002-geldanamycin heterodimers as selective inhibitors of the PI3K and PI3K-related family” (Bioorg Med Chem Lett, 2001)
pEC50, pIC50: −log10 of the molar value.

Tests used:
[1] = Inhibition of Phoshoinositol 3 kinase; design: species or system Homo sapiens
[2] = target: T1, DNA-dependent protein kinase catalytic subunit (Homo sapiens, UniProt P78527); assay: Inhibition of DNA dependent protein kinase activity without hsp90 alpha protein
[3] = target: Heat shock protein HSP 90-alpha (Homo sapiens, UniProt P07900); assay: Competitive binding towards Heat shock protein HSP 90-alpha
[4] = Inhibition of Phoshoinositol 3 kinase from MCF-7 breast cancer cells; type: cell-based, Homo sapiens; details: mcf7
[5] = target: T1, DNA-dependent protein kinase catalytic subunit; assay: Inhibition of DNA dependent protein kinase with hsp90 alpha protein

T1 sequence (P78527 whole entry): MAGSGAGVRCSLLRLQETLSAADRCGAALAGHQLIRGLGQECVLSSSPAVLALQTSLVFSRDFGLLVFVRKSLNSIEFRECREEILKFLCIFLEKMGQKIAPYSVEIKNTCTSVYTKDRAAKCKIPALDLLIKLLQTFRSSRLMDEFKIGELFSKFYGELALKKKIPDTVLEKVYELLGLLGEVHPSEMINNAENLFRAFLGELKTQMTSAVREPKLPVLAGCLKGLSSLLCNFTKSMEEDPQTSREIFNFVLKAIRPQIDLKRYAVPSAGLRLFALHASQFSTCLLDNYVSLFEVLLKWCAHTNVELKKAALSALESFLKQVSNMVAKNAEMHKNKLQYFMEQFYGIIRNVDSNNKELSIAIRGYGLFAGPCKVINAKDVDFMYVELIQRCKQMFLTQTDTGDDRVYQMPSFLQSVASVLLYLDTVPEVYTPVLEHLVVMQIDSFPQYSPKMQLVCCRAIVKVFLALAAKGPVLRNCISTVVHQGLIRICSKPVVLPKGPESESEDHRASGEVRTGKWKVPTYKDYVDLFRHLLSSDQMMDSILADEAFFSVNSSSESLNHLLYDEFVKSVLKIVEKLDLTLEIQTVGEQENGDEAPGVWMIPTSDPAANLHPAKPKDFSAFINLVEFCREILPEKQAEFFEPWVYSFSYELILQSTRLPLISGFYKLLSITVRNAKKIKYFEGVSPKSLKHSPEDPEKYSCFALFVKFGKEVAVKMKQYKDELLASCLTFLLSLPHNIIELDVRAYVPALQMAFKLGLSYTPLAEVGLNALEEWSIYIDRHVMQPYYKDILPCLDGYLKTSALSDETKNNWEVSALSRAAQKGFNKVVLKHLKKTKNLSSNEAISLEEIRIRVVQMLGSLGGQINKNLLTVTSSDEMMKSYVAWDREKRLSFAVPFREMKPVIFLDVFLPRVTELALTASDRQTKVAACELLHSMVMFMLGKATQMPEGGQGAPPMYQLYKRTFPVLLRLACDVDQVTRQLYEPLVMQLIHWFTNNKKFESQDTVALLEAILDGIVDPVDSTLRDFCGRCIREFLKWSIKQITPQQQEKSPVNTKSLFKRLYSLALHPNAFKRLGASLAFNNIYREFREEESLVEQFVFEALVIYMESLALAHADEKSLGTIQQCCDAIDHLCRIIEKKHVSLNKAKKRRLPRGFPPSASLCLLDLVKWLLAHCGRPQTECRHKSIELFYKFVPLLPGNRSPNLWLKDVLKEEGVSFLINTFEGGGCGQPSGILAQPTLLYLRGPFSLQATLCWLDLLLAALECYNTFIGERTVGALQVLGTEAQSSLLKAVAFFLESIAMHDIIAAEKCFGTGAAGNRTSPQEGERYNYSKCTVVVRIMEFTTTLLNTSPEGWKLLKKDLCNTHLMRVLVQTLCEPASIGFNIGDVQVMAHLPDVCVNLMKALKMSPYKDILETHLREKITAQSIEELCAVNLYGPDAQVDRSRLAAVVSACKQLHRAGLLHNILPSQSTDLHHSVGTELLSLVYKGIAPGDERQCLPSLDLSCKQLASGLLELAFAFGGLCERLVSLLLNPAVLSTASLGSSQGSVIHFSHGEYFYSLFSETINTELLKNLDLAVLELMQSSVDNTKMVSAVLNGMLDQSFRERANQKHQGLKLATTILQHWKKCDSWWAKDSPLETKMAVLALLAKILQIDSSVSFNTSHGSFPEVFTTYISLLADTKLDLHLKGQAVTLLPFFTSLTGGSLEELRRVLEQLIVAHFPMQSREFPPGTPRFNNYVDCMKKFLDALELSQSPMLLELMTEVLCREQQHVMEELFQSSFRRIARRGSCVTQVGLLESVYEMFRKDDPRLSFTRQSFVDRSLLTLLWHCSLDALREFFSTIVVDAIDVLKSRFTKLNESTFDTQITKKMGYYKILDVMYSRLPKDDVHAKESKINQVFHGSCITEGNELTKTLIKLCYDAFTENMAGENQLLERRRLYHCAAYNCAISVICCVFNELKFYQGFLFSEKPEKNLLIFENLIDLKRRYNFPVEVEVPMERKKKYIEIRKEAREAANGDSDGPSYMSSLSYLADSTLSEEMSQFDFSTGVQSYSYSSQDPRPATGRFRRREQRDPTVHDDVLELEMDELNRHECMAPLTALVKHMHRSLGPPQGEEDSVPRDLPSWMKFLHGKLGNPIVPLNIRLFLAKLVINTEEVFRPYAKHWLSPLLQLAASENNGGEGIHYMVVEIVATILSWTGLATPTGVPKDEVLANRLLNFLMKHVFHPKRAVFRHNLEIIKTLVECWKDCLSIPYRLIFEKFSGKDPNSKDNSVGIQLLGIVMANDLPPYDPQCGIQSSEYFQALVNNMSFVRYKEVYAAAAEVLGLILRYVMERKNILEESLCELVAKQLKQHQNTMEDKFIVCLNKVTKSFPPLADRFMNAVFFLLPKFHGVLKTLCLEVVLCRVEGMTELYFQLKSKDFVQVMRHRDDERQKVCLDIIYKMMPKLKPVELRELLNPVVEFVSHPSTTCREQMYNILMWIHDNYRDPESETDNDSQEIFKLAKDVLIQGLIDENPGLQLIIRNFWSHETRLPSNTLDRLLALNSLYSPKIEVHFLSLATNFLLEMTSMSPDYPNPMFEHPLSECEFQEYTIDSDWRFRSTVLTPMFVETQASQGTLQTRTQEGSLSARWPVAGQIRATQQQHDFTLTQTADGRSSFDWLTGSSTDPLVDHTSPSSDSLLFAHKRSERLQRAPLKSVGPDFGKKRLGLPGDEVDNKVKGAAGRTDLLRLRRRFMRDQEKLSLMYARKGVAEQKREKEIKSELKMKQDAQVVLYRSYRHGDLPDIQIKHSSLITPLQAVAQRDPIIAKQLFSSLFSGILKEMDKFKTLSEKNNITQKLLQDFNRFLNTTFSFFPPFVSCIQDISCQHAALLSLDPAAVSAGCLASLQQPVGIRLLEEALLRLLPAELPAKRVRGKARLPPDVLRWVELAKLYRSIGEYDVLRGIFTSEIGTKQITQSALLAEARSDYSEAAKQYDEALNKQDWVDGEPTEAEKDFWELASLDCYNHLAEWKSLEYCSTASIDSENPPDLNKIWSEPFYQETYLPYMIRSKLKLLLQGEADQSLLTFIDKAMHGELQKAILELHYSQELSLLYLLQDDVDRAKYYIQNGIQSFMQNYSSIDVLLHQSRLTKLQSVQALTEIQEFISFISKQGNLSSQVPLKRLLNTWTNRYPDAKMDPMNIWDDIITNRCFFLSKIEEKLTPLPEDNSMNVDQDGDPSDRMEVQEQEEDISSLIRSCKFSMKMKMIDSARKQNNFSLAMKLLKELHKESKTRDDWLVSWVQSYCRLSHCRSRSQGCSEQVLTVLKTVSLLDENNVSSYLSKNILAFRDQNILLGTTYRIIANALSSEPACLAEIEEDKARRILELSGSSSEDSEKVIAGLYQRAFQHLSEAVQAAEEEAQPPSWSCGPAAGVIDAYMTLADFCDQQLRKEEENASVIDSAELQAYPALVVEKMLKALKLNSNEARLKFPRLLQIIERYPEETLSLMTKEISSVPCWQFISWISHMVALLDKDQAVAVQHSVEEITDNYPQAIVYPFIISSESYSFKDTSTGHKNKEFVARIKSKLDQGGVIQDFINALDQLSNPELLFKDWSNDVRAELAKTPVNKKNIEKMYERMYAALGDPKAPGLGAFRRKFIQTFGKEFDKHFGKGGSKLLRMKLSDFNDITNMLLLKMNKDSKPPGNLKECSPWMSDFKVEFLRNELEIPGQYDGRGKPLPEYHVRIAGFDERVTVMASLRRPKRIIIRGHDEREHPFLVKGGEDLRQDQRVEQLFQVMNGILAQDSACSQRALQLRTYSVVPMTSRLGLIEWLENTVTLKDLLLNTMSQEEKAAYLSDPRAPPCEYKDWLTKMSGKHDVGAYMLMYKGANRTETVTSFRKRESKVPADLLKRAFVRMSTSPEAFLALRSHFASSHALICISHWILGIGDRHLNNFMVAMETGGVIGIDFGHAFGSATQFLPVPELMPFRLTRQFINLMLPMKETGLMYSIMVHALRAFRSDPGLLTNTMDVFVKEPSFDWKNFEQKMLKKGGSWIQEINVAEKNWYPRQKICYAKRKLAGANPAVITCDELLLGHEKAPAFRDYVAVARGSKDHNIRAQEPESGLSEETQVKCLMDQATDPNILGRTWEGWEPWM

| Compound | pIC50 [1] | pIC50 [2] | pEC50 [3] | pIC50 [4] | pIC50 [5] |
| --- | --- | --- | --- | --- | --- |
| O=c1cc(N2CCOCC2)oc2c1ccc1ccccc12 | 5.22 |  |  |  |  |
| CO[C@H]1/C=C\C=C(/C)C(=O)NC2=CC(=O)C(NCCCOc3ccc4c(=O)cc(N5CCOCC5)oc4c3)=C(C[C@@H](C)C[C@H](OC)[C@H](O)[C@@H](C)/C=C(\C)[C@@H]1OC(N)=O)C2=O |  | 4.55 | 4.59 | < 3.30 |  |
| CO[C@H]1/C=C\C=C(/C)C(=O)NC2=CC(=O)C(NCCCCOc3ccc4c(=O)cc(N5CCOCC5)oc4c3)=C(C[C@@H](C)C[C@H](OC)[C@H](O)[C@@H](C)/C=C(\C)[C@@H]1OC(N)=O)C2=O |  | 4.86 | 5.00 | 3.70 |  |
| CO[C@H]1/C=C\C=C(/C)C(=O)NC2=CC(=O)C(NCCCC#Cc3cccc4c(=O)cc(N5CCOCC5)oc34)=C(C[C@@H](C)C[C@H](OC)[C@H](O)[C@@H](C)/C=C(\C)[C@@H]1OC(N)=O)C2=O |  | 4.87 | < 4.30 | 4.87 |  |
| CO[C@H]1/C=C\C=C(/C)C(=O)NC2=CC(=O)C(NCCOCCOc3ccc4c(=O)cc(N5CCOCC5)oc4c3C)=C(C[C@@H](C)C[C@H](OC)[C@H](O)[C@@H](C)/C=C(\C)[C@@H]1OC(N)=O)C2=O |  | 4.91 | < 4.30 | 4.15 |  |
| CO[C@H]1/C=C\C=C(/C)C(=O)NC2=CC(=O)C(NCCOCCOc3ccc4c(=O)cc(N5CCOCC5)oc4c3)=C(C[C@@H](C)C[C@H](OC)[C@H](O)[C@@H](C)/C=C(\C)[C@@H]1OC(N)=O)C2=O |  | 4.48 | 4.80 | 4.07 |  |
| C=CCNC1=C2C[C@@H](C)C[C@H](OC)[C@H](O)[C@@H](C)/C=C(\C)[C@H](OC(N)=O)[C@@H](OC)/C=C\C=C(/C)C(=O)NC(=CC1=O)C2=O [TANESPIMYCIN] |  | < 4.40 |  | < 3.30 |  |

More lines, in order of rising pIC50 [2], values ahead:

| pIC50 [1] | pIC50 [2] | pEC50 [3] | pIC50 [4] | pIC50 [5] | Compound |
| --- | --- | --- | --- | --- | --- |
|  | 5.00 | 5.60 | 3.51 | 5.30 | CO[C@H]1/C=C\C=C(/C)C(=O)NC2=CC(=O)C(NCCCCCOc3ccc4c(=O)cc(N5CCOCC5)oc4c3)=C(C[C@@H](C)C[C@H](OC)[C@H](O)[C@@H](C)/C=C(\C)[C@@H]1OC(N)=O)C2=O |
|  | 5.21 | 5.40 | < 3.30 |  | CO[C@H]1/C=C\C=C(/C)C(=O)NC2=CC(=O)C(NCCCCCCOc3ccc4c(=O)cc(N5CCOCC5)oc4c3)=C(C[C@@H](C)C[C@H](OC)[C@H](O)[C@@H](C)/C=C(\C)[C@@H]1OC(N)=O)C2=O |
|  | 5.37 | < 4.30 | 4.85 |  | O=c1cc(N2CCOCC2)oc2ccccc12 |
|  | 5.43 | 4.34 | 5.30 |  | CO[C@H]1/C=C\C=C(/C)C(=O)NC2=CC(=O)C(NCCCCCCCOc3ccc4c(=O)cc(N5CCOCC5)oc4c3C)=C(C[C@@H](C)C[C@H](OC)[C@H](O)[C@@H](C)/C=C(\C)[C@@H]1OC(N)=O)C2=O |
|  | 5.52 | 5.15 | 5.52 |  | CO[C@H]1/C=C\C=C(/C)C(=O)NC2=CC(=O)C(NCC#Cc3cccc4c(=O)cc(N5CCOCC5)oc34)=C(C[C@@H](C)C[C@H](OC)[C@H](O)[C@@H](C)/C=C(\C)[C@@H]1OC(N)=O)C2=O |
|  | 5.76 | 4.55 | 4.55 |  | CO[C@H]1/C=C\C=C(/C)C(=O)NC2=CC(=O)C(NCCCCCCCCOc3ccc4c(=O)cc(N5CCOCC5)oc4c3C)=C(C[C@@H](C)C[C@H](OC)[C@H](O)[C@@H](C)/C=C(\C)[C@@H]1OC(N)=O)C2=O |
